IC50 and EC50 data for 10 compounds are collected here from patent publication US8987195B2 (priority 2012, dated 2015).

Assay [1] has as its target HCV NS3/4A protease A156T mutant (Hepatitis C virus genotype 1b, UniProt P26663, A1182T). The assay can be described thus: HCV NS3/4A protease time-resolved fluorescence (TRF) assay, Ki against A156T mutant. Format: biochemical. The following applies: NS3/4A gt-1b A156T mutant, enzyme 0.4 nM; read-out: IC50 [gt-1b A156T]. As for the experimental part: Measuring NS3/4A Inhibitory Activity (Ki) Against Genotype 1b, Against A156T Mutants and Against Genotype 3a
One assay for measuring inhibitory activity is HCV NS3 protease time-resolved fluorescence (TRF) assay as described below and in Mao et al., Anal. Biochem. 373:1-8, 2008 and International Patent Application Publication WO 2006/102087. A NS3 protease assay can be performed, for example, in a final volume of 20 μl assay buffer containing 50 mM HEPES, pH 7.5, 150 mM NaCl, 15% glycerol, 0.15% TRITON X-100, 10 mM DTT, and 0.1% PEG 8000. NS3 and NS4A protease is pre-incubated with various concentrations of inhibitors in DMSO for 30 min. The reaction is initiated by adding the TRF peptide substrate (final concentration 25 nM). NS3 mediated hydrolysis of the substrate was run for 2.5 hours at room temperature. Product fluorescence is detected using A Pherastar Plus plate reader (BMG) or Envision (Perkin Elmer Life and Analytical Sciences with excitation at 340 nm and emission at 615 nm using the appropriate delay time optimized for the europium fluorescence probe. Testing concentrations of different enzyme forms are selected to result in a signal to background ratio (S/B) of 10-30. IC50 values are derived using a standard four-parameter fit to the data. Ki values are derived from IC50 values using the following formula, IC50=Ki(1+[S]/KM), Eqn (1), where [S] is the concentration of substrate peptide in the reaction and KM is the Michaelis constant. See P. Gallinari et al., 38 BIOCHEM. 5620-32 (1999); P. Gallinari et al., 72 J. VIROL. 6758-69 (1998); M. Taliani et al., 240 ANAL. BIOCHEM. 60-67 (1996); Mao et al., Analytical Biochemistry 373: 1-8, 2008.
The assay described above was run against genotype 1b at a concentration of 0.2 nM, against A156T mutant strains at a concentration of 0.4 nM, and against genotype 3a at a concentration of 0.025 nM.

The test system of a further assay is HCV genotype 1b replicon. The assay can be described thus: HCV replicon assay, genotype 1b replicon EC50. The class given is cell-based, Hepatitis C virus. The following applies: read-out: EC50 [gt-1b]. The gist of the method:
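Assay format: compound titration on stable replicon cells, no G418 during treatment, 24 to 48 hours. Lysates were assayed for replicon RNA (hybridization/protection or TaqMan) or luciferase; EC50 fitted to four parameters against DMSO.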
Background: In antiviral work, replicon cells carry a viral genome segment that copies itself.

Assay [2] deals with HCV NS3/4A protease genotype 1b (Hepatitis C virus genotype 1b, UniProt P26663). Put plainly: HCV NS3/4A protease time-resolved fluorescence (TRF) assay, Ki against genotype 1b. The class given is biochemical. An outline of the steps: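 NS3/4A enzyme was preincubated 30 min with inhibitor in 50 mM HEPES pH 7.5, 150 mM NaCl, 15% glycerol, 0.15% Triton X-100, 10 mM DTT, 0.1% PEG 8000; 25 nM europium TRF peptide substrate added, 2.5 h at room temperature. Enzyme: 0.2 nM (1b), 0.4 nM (A156T), 0.025 nM (3a). Ki from IC50 via Cheng-Prusoff.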

[3] abbreviates: Hepatitis C virus, HCV replicon, genotype 1b.
[4] abbreviates: IC50 [gt-1b], NS3/4A protease TRF assay, genotype 1b enzyme 0.2 nM.
The mark [5] stands for this setting: Hepatitis C virus, HCV replicon, genotype 1b, HCl salt.
[6] abbreviates: IC50 [gt-1b], NS3/4A protease TRF assay, genotype 1b enzyme 0.2 nM, HCl salt.

pEC50, pIC50: −log10 of the molar value. Like-named read-outs stand apart in the source and are kept apart here.

As for `Cc1nc2ccccc2c2c1O[C@@]1(CC2)C[C@H]2C(=O)N[C@]3(C(=O)NS(=O)(=O)C4(C)CC4)C[C@H]3/C=C\CCCCC[C@H](NC(=O)NC(C)(C)C)C(=O)N2C1` [Example 78, (2S,6S,12Z,13aS,14aR,16aS)-6-[(tert-butylcarbamoyl)amino]-5′-methyl-N-[(1-methylcyclopropyl)sulfonyl]-5,16-dioxo-1,1′,2′,6,7,8,9,10,11,13a,14,15,16,16a-tetradecahydrospiro[cyclopropa[e]pyrrolo[1,2-a][1,4]diazacyclopentadecine-2,3′-pyrano[2,3-c]quinoline]-14a(5H)-carboxamide], in assay [1], the pIC50 is 8.51. Also, in the assay with HCV genotype 1b replicon (Hepatitis C virus, genotype 1b replicon), the negative logarithm of the EC50 (pEC50) was 7.07.
As for `COCC1(S(=O)(=O)NC(=O)[C@@]23C[C@H]2/C=C\CCCCC[C@H](NC(=O)C2CCC(=O)N(C)C2)C(=O)N2C[C@@]4(CCc5c(c(C(F)(F)F)nc6ccc(OC)cc56)O4)C[C@H]2C(=O)N3)CC1` (stereo partly drawn) [Example 500, (2R,6S,12Z,13aS,14aR,16aS)-9′-methoxy-N-{[1-(methoxymethyl)cyclopropyl]sulfonyl}-6-{[(1-methyl-6-oxopiperidin-3-yl)carbonyl]amino}-5,16-dioxo-5′-(trifluoromethyl)-1,1′,2′,6,7,8,9,10,11,13a,14,15,16,16a-tetradecahydrospiro[cyclopropa[e]pyrrolo[1,2-a][1,4]diazacyclopentadecine-2,3′-pyrano[2,3-c]quinoline]-14a(5H)-carboxamide], the pEC50 with HCV genotype 1b replicon (setting [3]) was 6.36. This compound had a pIC50 in assay [2] (setting [4]) of 10.85.
With `COc1ccc2nc(C(F)(F)F)c3c(c2c1)CC[C@]1(C[C@H]2C(=O)N[C@]4(C(=O)NS(=O)(=O)C5(C)CC5)C[C@H]4/C=C\CCCCC[C@H](NC(=O)O[C@@H]4C[C@@H]5C[C@@H]5C4)C(=O)N2C1)O3` [Example 513, (1R,3r,5S)-bicyclo[3.1.0]hex-3-yl [(2R,6S,12Z,13aS,14aR,16aS)-9′-methoxy-14a-{[(1-methylcyclopropyl)sulfonyl]carbamoyl}-5,16-dioxo-5′-(trifluoromethyl)-1,1′,2′,5,6,7,8,9,10,11,13a,14,14a,15,16,16a-hexadecahydrospiro[cyclopropa[e]pyrrolo[1,2-a][1,4]diazacyclopentadecine-2,3′-pyrano[2,3-c]quinolin]-6-yl]carbamate], the pEC50 in the assay with HCV genotype 1b replicon (setting [3]) is 8.85. Also, the pIC50 in assay [2] (setting [4]) was 11.00.
Turning to `CCc1nc2ccc(OCCN3CCOCC3)cc2c2c1O[C@]1(CC2)C[C@H]2C(=O)N[C@]3(C(=O)NS(=O)(=O)C4(C)CC4)C[C@H]3/C=C\CCCCC[C@H](NC(=O)O[C@@H]3C[C@@H]4C[C@@H]4C3)C(=O)N2C1` [Example 516, (1R,3r,5S)-bicyclo[3.1.0]hex-3-yl {(2R,6S,12Z,13aS,14aR,16aS)-5′-ethyl-14a-{[(1-methylcyclopropyl)sulfonyl]carbamoyl}-9′-[2-(morpholin-4-yl)ethoxy]-5,16-dioxo-1,1′,2′,5,6,7,8,9,10,11,13a,14,14a,15,16,16a-hexadecahydrospiro[cyclopropa[e]pyrrolo[1,2-a][1,4]diazacyclopentadecine-2,3′-pyrano[2,3-c]quinolin]-6-yl}carbamate], in the assay with HCV genotype 1b replicon (setting [5]), the pEC50 was 8.96. Further, the negative logarithm of the IC50 (pIC50) in assay [2] (setting [6]) is 11.00.
As to `COc1ccc2nc(C(F)(F)F)c3c(c2c1)OC[C@]1(C[C@H]2C(=O)N[C@]4(C(=O)NS(=O)(=O)C5(C)CC5)C[C@@H]4/C=C/CCCCC[C@H](NC(=O)OC(C)(C)C)C(=O)N2C1)O3` [Example 517, tert-butyl [(2R,6S,12E,13aR,14aR,16aS)-9′-methoxy-14a-{[(1-methylcyclopropyl)sulfonyl]carbamoyl}-5,16-dioxo-5′-(trifluoromethyl)-1,5,6,7,8,9,10,11,13a,14,14a,15,16,16a-tetradecahydrospiro[cyclopropa[e]pyrrolo[1,2-a][1,4]diazacyclopentadecine-2,3′-[1,4]dioxino[2,3-c]quinolin]-6-yl]carbamate], the pEC50 with HCV genotype 1b replicon (setting [3]) is 8.05. Also, the pIC50 in assay [2] (setting [4]) is 7.95.
As for `CC(C)(C)OC(=O)N[C@H]1CCCCC/C=C\[C@@H]2C[C@@]2(C(=O)NS(=O)(=O)C2(C)CC2)NC(=O)[C@@H]2C[C@]3(CCc4c(c(C(F)(F)F)nc5ccc(OCCN6CC(F)(F)C6)cc45)O3)CN2C1=O` [Example 518, tert-butyl [(2R,6S,12Z,13aS,14aR,16aS)-9′-[2-(3,3-difluoroazetidin-1-yl)ethoxy]-14a-{[(1-methylcyclopropyl)sulfonyl]carbamoyl}-5,16-dioxo-5′-(trifluoromethyl)-1,1′,2′,5,6,7,8,9,10,11,13a,14,14a,15,16,16a-hexadecahydrospiro[cyclopropa[e]pyrrolo[1,2-a][1,4]diazacyclopentadecine-2,3′-pyrano[2,3-c]quinolin]-6-yl]carbamate], in the assay on HCV genotype 1b replicon (setting [3]), the pEC50 was 9.14. The pIC50 in assay [2] (setting [4]) is 10.92.
With `CCc1nc2ccc(OCCN3CCOCC3)cc2c2c1O[C@]1(CC2)C[C@H]2C(=O)N[C@]3(C(=O)NS(=O)(=O)C4(C)CC4)C[C@H]3/C=C\CCCCC[C@H](NC(=O)O[C@@H](C)C(C)C)C(=O)N2C1` [Example 519, (2S)-3-methylbutan-2-yl {(2R,6S,12Z,13aS,14aR,16aS)-5′-ethyl-14a-{[(1-methylcyclopropyl)sulfonyl]carbamoyl}-9′-[2-(morpholin-4-yl)ethoxy]-5,16-dioxo-1,1′,2′,5,6,7,8,9,10,11,13a,14,14a,15,16,16a-hexadecahydrospiro[cyclopropa[e]pyrrolo[1,2-a][1,4]diazacyclopentadecine-2,3′-pyrano[2,3-c]quinolin]-6-yl}carbamate], the pEC50 in the assay with HCV genotype 1b replicon (setting [5]) was 9.27. The pIC50 in assay [2] (setting [6]) is 11.05.
Consider `CC[C@H](C)OC(=O)N[C@H]1CCCCC/C=C\[C@@H]2C[C@@]2(C(=O)NS(=O)(=O)C2(C)CC2)NC(=O)[C@@H]2C[C@]3(CCc4c(c(C(F)F)nc5ccc(OC)nc45)O3)CN2C1=O` [Example 525, (2S)-butan-2-yl [(2R,6S,12Z,13aS,14aR,16aS)-6′-(difluoromethyl)-2′-methoxy-14a-{[(1-methylcyclopropyl)sulfonyl]carbamoyl}-5,16-dioxo-1,5,6,7,8,9,9′,10,10′,11,13a,14,14a,15,16,16a-hexadecahydrospiro[cyclopropa[e]pyrrolo[1,2-a][1,4]diazacyclopentadecine-2,8′-pyrano[2,3-c][1,5]naphthyridin]-6-yl]carbamate], for which the pEC50 in the assay on HCV genotype 1b replicon (setting [3]) was 8.94. In assay [2] (setting [4]), this compound had a pIC50 of 11.40.
`COc1ccc2nc(C(F)F)c3c(c2n1)CC[C@]1(C[C@H]2C(=O)N[C@]4(C(=O)NS(=O)(=O)C5(C)CC5)C[C@H]4/C=C\CCCCC[C@H](NC(=O)OCC(C)(C)C)C(=O)N2C1)O3` [Example 526, 2,2-dimethylpropyl [(2R,6S,12Z,13aS,14aR,16aS)-6′-(difluoromethyl)-2′-methoxy-14a-{[(1-methylcyclopropyl)sulfonyl]carbamoyl}-5,16-dioxo-1,5,6,7,8,9,9′,10,10′,11,13a,14,14a,15,16,16a-hexadecahydrospiro[cyclopropa[e]pyrrolo[1,2-a][1,4]diazacyclopentadecine-2,8′-pyrano[2,3-c][1,5]naphthyridin]-6-yl]carbamate]: the pEC50 with HCV genotype 1b replicon (setting [3]) is 8.59. For the same compound, the pIC50 in assay [2] (setting [4]) is 11.30.
On to “tert-Butyl (2R,6S,13aS,14aR,16aS,Z)-10′-chloro-5′-(difluoromethyl)-9′-methoxy-14a-(1-methylcyclopropylsulfonylcarbamoyl)-5,16-dioxo-1′,2′,3,5,6,7,8,9,10,11, 13a,14,14a,15,16,16a-hexadecahydro-1H-spiro[cyclopropa[e]pyrrolo[1,2-a][1,4]diaza cyclopentadecine-2,3′-pyrano[2,3-c]quinoline]-6-ylcarbamate [Example 27]”, for which, in the assay on HCV genotype 1b replicon (genotype 1b replicon), the pEC50 was 7.97. Moreover, the pIC50 in assay [2] (NS3/4A genotype 1b, enzyme 0.2 nM, read-out: IC50 [gt-1b]) was 10.96.

In general, pIC50 refers to the IC50 on a negative log10 scale, so that one unit is a factor of ten. The pEC50 is the EC50 on a negative log10 scale, so that one unit is a factor of ten.
